# Source: patent publication US9427415B2, “Methods and compositions for modifying sensorial perception” (The Procter & Gamble Company, priority 2014, dated 2016)
# Like-named read-outs stand apart in the source and are kept apart here.
# Columns and labels:
# human TRPV1 = biological target: T1, human TRPV1 (Homo sapiens, UniProt Q8NER1, M315I/T336M); assay: Intracellular calcium (Fluo-4, FLIPR) activation of TRPV1 cells by GRAS compounds; type: cell-based; conditions: for activation at 1000 µM / activation at 100 µM: read-out: V1 activation, % of agonist value; for TRPV1 activation selectivity, in words: statement in description, see Table 1(i);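 on all read-outs here: TRPV1-expressing cells, FLIPR fluorescence at 488/514 nm with baseline subtracted, sampled every 2 s for 10 min after adding compound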
# T1 construct: expressed in transfected cells; pcDNA3 control cells
# TRPA1V1 = assay: Intracellular calcium (Fluo-4, FLIPR) activation of TRPA1V1 cells (co-expressing TRPA1 and TRPV1) by GRAS compounds; type: cell-based, human;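 further: HEK293 cells co-expressing TRPA1 and TRPV1, fluorescence read at 488/514 nm after baseline subtraction, recorded every 2 s over 10 min, ionomycin 10 µM and buffer as controls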
# Procedure: TRPV1, TRPA1, TRPA1V1 and pcDNA3 cells were grown in 15 mL growth medium [high glucose DMEM (Dulbecco's modification of Eagle's medium) supplemented with 10% FBS (fetal bovine serum), 100 μg/mL penicillin/streptomycin, 100 μg/mL G418] in a 75 cm^2 flask for 3 days in a mammalian cell culture incubator at 33° C. and 5% CO2. TRP Cells were detached with 8 mL of PBS (without calcium or magnesium); for pcDNA3 cells, trypsin was used for releasing the cells. The detached cells were spun at low speed (800-900 rpm for 3 min) to pellet the cells. […] The cells were washed once with 45 mL assay buffer (1×HBSS, 20 mM HEPES) by low speed centrifugation (800-900 rpm for 3 min) and resuspended in 11 mL of the assay buffer in a reagent reservoir. […] The plates were set at room temperature for 30 min. The plates were read in a FLIPR^TETRA instrument (Molecular Devices, Sunnyvale, Calif.) at λex 488 nm and λem 514 nm to record baseline fluorescence following which 20 μL of test material at 1 mM or 100 μM final concentration for pure compounds in a GRAS library or 0.004% for extracts. For agonists, capsaicin 350 nM and AITC at 30 μM; and for controls, ionomycin 10 μM and buffer alone) was added to each well using the dispenser provided in the FLIPR. The data point was recorded every 2 seconds for a total of 10 min.
# Average value for activation from three independent assay plates are presented as % of agonist value (AITC, 30 μM for TRPA1 and capsaicin, 350 nM for TRPV1. For TRPA1V1, we used AITC, 30 μM or capsaicin, 350 nM depending on if the compound is an A1 agonist or a V1 agonist. For compounds that activated both A1 and V1, we used AITC for normalization). Variation among triplicates was within 10% of each other. Assayed at 1 mM for pure compounds and 0.004% for extracts.
# human TRPA1 = biological target: T2, human TRPA1 (Homo sapiens, UniProt O75762, K186N/R3C/R58T); assay: Intracellular calcium (Fluo-4, FLIPR) activation of TRPA1 cells by GRAS compounds; type: cell-based; conditions: for activation at 1000 µM / activation at 100 µM: read-out: A1 activation, % of agonist value;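 on all read-outs here: TRPA1-expressing cells, fluorescence read on a FLIPR Tetra (ex 488 nm, em 514 nm) every 2 s for 10 min after compound addition, baseline subtracted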
# T2 construct: expressed in transfected cells; pcDNA3 control cells
# [1] = Table 1(b), 1 mM, relative to capsaicin 350 nM
# [2] = Table 1(b), 1 mM, relative to AITC 30 μM
# [3] = Table 1(e), 100 μM (*), relative to AITC 30 μM
# [4] = Table 1(a), 1 mM, relative to capsaicin 350 nM, average of three plates
# [5] = Table 1(a), 1 mM, relative to AITC 30 μM, average of three plates
# [6] = Table 1(c), 1 mM, relative to AITC 30 μM
# [7] = Table 1(i), 1 mM, relative to capsaicin 350 nM, […]
# [8] = Table 1(i), 1 mM, relative to AITC 30 μM or capsaicin 350 nM depending on compound, […]
# [9] = Table 1(i), 1 mM, relative to AITC 30 μM, […]
# [10] = Table 1(a), 100 μM (*), relative to AITC 30 μM
# T1 sequence (Q8NER1 whole entry M315I/T336M): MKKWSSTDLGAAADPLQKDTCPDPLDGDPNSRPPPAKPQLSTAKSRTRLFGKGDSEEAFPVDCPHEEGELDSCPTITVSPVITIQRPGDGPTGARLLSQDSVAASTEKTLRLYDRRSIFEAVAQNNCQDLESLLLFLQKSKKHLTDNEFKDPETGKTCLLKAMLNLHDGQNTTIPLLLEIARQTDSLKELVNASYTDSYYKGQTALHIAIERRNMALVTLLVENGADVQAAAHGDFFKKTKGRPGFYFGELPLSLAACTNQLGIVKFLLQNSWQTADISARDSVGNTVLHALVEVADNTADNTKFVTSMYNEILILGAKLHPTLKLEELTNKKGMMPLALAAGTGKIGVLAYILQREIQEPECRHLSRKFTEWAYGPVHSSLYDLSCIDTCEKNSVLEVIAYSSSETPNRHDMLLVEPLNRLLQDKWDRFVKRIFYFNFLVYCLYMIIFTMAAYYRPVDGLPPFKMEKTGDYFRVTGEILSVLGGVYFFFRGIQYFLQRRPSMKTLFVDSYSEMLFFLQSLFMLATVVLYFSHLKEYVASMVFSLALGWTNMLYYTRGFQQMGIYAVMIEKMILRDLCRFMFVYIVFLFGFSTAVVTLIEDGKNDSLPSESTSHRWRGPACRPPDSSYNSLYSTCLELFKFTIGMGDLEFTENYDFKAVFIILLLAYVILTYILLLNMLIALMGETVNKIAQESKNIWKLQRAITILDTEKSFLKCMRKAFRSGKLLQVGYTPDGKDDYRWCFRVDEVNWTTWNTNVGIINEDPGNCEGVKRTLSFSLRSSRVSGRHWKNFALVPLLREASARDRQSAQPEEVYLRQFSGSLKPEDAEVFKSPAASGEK
# T2 sequence (O75762 whole entry R3C/R58T/K186N): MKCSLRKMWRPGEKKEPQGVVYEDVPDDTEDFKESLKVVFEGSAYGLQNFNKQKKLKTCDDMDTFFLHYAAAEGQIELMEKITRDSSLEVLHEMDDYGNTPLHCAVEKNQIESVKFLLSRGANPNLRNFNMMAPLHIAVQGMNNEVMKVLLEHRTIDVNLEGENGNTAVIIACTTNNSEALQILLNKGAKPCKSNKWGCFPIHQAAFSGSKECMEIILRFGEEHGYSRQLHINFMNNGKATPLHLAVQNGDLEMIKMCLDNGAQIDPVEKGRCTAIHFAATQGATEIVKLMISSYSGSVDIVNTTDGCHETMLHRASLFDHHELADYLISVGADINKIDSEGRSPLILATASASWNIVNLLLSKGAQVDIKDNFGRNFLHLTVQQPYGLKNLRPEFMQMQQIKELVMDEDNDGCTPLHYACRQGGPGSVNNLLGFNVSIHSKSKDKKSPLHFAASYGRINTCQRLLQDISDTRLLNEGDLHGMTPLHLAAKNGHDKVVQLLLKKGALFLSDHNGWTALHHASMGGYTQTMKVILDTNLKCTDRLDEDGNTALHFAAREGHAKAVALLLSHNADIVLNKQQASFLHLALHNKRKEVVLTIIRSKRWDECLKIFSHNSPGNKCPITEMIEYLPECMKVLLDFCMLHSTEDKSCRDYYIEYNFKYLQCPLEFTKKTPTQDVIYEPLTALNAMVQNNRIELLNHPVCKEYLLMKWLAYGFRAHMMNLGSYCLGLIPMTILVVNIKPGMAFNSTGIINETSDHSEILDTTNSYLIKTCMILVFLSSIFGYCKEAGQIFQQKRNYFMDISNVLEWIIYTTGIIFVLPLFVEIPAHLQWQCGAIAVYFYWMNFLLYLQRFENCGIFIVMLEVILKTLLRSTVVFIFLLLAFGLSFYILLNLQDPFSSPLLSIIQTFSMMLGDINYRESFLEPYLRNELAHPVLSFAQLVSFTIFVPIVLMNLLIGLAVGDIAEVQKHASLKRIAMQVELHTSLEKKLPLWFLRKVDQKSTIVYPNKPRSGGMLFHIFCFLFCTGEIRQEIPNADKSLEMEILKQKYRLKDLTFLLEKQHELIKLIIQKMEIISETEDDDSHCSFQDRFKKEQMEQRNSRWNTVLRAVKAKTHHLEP
structure (smiles),measurement,setting,value
COc1cc(/C=C/C(=O)CC(=O)/C=C/c2ccc(O)c(OC)c2)ccc1O [Curcumin],activation at 1000 µM,human TRPV1; [1],43.2%
same,"A1V1 activation, % of agonist value",TRPA1V1; [2],171.6%
same,"A1V1 activation, % of agonist value",TRPA1V1; [3],150.3%
same,activation at 1000 µM,human TRPA1; [2],95.3%
same,activation at 100 µM,human TRPA1; [3],102%
O=C(O)CC1CCCCC1 [Cyclohexaneacetic acid],activation at 1000 µM,human TRPV1; [4],56.6%
same,"A1V1 activation, % of agonist value",TRPA1V1; [5],61.28%
same,activation at 1000 µM,human TRPA1; [5],20.6%
CCOC(=O)C(O)Cc1ccccc1 (centres unmarked) [Ethyl 2-hydroxy-3-phenylpropanoate],activation at 1000 µM,human TRPV1; [4],29.2%
same,"A1V1 activation, % of agonist value",TRPA1V1; [5],90.76%
same,activation at 1000 µM,human TRPA1; [5],95.6%
CCCCCC(O)CC(=O)OCC (centres unmarked) [Ethyl 3-hydroxyoctanoate],activation at 1000 µM,human TRPV1; [1],28.1%
same,"A1V1 activation, % of agonist value",TRPA1V1; [2],76.90%
same,activation at 1000 µM,human TRPA1; [2],97.3%
CC(C)=CCCC(C)=CCCC(C)=CC=O [Farnesal],"V1 activation, % of agonist value",human TRPV1; [4],41.22%
same,"A1V1 activation, % of agonist value",TRPA1V1; [5],104.4%
same,"A1 activation, % of agonist value",human TRPA1; [5],97.58%
CCCCCC1CCC(=O)O1 (centres unmarked) [Gamma-Nonalactone],"V1 activation, % of agonist value",human TRPV1; [4],66.34%
same,"A1V1 activation, % of agonist value",TRPA1V1; [5],69.15%
same,"A1 activation, % of agonist value",human TRPA1; [5],33.32%
CC(C)=CCC/C(C)=C/CO [Geraniol],activation at 1000 µM,human TRPV1,42.2%
same,"A1V1 activation, % of agonist value",TRPA1V1,63.93%
same,activation at 1000 µM,human TRPA1; [2],82.5%
CCCC(=O)OC/C=C(\C)CCC=C(C)C [Geranyl butyrate],activation at 1000 µM,human TRPV1; [4],28.9%
same,"A1V1 activation, % of agonist value",TRPA1V1; [5],76.26%
same,activation at 1000 µM,human TRPA1; [5],76.9%
"CCCCCC1C(=O)CCC1CC(=O)OC (centres unmarked) [Hedione, Methyl dihydrojasmonate]",activation at 1000 µM,human TRPV1; [1],25.6%
same,"A1V1 activation, % of agonist value",TRPA1V1; [2],60.64%
same,"A1V1 activation, % of agonist value",TRPA1V1; [6],59.58%
same,activation at 1000 µM,human TRPA1; [2],43.5%
same,activation at 1000 µM,human TRPA1; [6],54.4%
CC(C=O)Cc1ccc2c(c1)OCO2 (centres unmarked) [Helional],"V1 activation, % of agonist value",human TRPV1; [4],23.38%
same,"A1V1 activation, % of agonist value",TRPA1V1; [5],71.85%
same,"A1 activation, % of agonist value",human TRPA1; [5],78.00%
CCCCCCC=O [Heptaldehyde],activation at 100 µM,"human TRPV1; Table 1(i), 100 μM (*), relative to capsaicin 350 nM, […]",65.3%
same,"TRPV1 activation selectivity, in words",human TRPV1,TRPV1 activators which do not modulate TRPA1 or TRPA1V1
same,"A1V1 activation, % of agonist value","TRPA1V1; Table 1(i), 100 μM (*), relative to AITC 30 μM or capsaicin 350 nM depending on compound, […]",2.4%
same,activation at 100 µM,"human TRPA1; Table 1(i), 100 μM (*), relative to AITC 30 μM, […]",4.3%
CC(C)CCOC(=O)CCc1ccco1 [Isoamyl 3-(2-furan)propionate],"V1 activation, % of agonist value",human TRPV1; [1],32.66%
same,"A1V1 activation, % of agonist value",TRPA1V1; [2],106.9%
same,"A1 activation, % of agonist value",human TRPA1; [2],123.3%
"S=C=NCc1ccccc1 [Isothiocyanic acid, benzyl ester]",activation at 1000 µM,human TRPV1; [4],59.2%
same,"A1V1 activation, % of agonist value",TRPA1V1; [5],180.5%
same,activation at 1000 µM,human TRPA1; [5],110%
CCCCC/C=C\C/C=C\CCCCCCCC(=O)O [Linoleic acid],activation at 1000 µM,human TRPV1; [4],24.9%
same,"A1V1 activation, % of agonist value",TRPA1V1; [5],170.4%
same,activation at 1000 µM,human TRPA1; [5],170%
O=C(O)CC(O)C(=O)O (centres unmarked) [Malic acid],activation at 1000 µM,human TRPV1; [7],67.5%
same,"TRPV1 activation selectivity, in words",human TRPV1,TRPV1 activators which do not modulate TRPA1 or TRPA1V1
same,"A1V1 activation, % of agonist value",TRPA1V1; [8],2.4%
same,activation at 1000 µM,human TRPA1; [9],1.9%
COC(=O)C1CCCCC1 [Methyl cyclohexanecarboxylate],activation at 1000 µM,human TRPV1; [1],69.5%
same,"A1V1 activation, % of agonist value",TRPA1V1; [2],85.17%
same,activation at 1000 µM,human TRPA1; [2],45.5%
CC/C=C\C/C=C\C/C=C\CCCCCCCC(=O)OC [Methyl linolenate],activation at 1000 µM,human TRPV1; [4],31%
same,"A1V1 activation, % of agonist value",TRPA1V1; [5],104%
same,activation at 1000 µM,human TRPA1; [5],108%
"CCCCCCCCC(=O)NCc1ccc(O)c(OC)c1 [Nonivamide, N-Vanillylnonanamide]",activation at 100 µM,human TRPV1,65.5%
same,activation at 1000 µM,human TRPV1,91.4%
same,"A1V1 activation, % of agonist value","TRPA1V1; Table 1(g), 1 mM, relative to capsaicin 350 nM",135.6%
same,"A1V1 activation, % of agonist value","TRPA1V1; Table 1(i), 100 μM (*), relative to AITC 30 μM or capsaicin 350 nM depending on compound, values less than 20-25% considered inactive",1.2%
same,activation at 100 µM,human TRPA1,69%
C=C(C)[C@@H]1CC=C(CO)CC1 [Perillyl alcohol],activation at 1000 µM,human TRPV1; [4],20.4%
same,"A1V1 activation, % of agonist value",TRPA1V1; [5],73.28%
same,activation at 1000 µM,human TRPA1; [5],82%
O=C(O)C(=O)Cc1ccccc1 [Phenylpyruvic acid],activation at 1000 µM,human TRPV1; [4],32.5%
same,"A1V1 activation, % of agonist value",TRPA1V1; [5],74.05%
same,activation at 1000 µM,human TRPA1; [5],68%
O=C(CCc1ccc(O)cc1)c1c(O)cc(O)cc1O [Phloretin],activation at 100 µM,"human TRPV1; Table 1(a), 100 μM (*), relative to capsaicin 350 nM",122%
same,"A1V1 activation, % of agonist value",TRPA1V1; [10],174.3%
same,activation at 100 µM,human TRPA1; [10],160%
CC1=CC(=O)C(C(C)C)CC1 (centres unmarked) [Piperitone],activation at 1000 µM,human TRPV1; [1],53.3%
same,"A1V1 activation, % of agonist value",TRPA1V1; [2],109.1%
same,activation at 1000 µM,human TRPA1; [2],90.1%
CC(=O)OCc1ccc2c(c1)OCO2 [Piperonyl acetate],activation at 1000 µM,human TRPV1,20.9%
same,"A1V1 activation, % of agonist value",TRPA1V1; [2],78.00%
same,activation at 1000 µM,human TRPA1,62.7%
CC(C)C(=O)OCc1ccc2c(c1)OCO2 [Piperonyl isobutyrate],activation at 1000 µM,human TRPV1; [1],30%
same,"A1V1 activation, % of agonist value",TRPA1V1; [2],82.33%
same,activation at 1000 µM,human TRPA1; [2],61%
CCCSSc1ccoc1C [Propyl 2-methyl-3-furyl disulfide],activation at 1000 µM,human TRPV1; [4],25%
same,"A1V1 activation, % of agonist value",TRPA1V1; [5],194.3%
same,"A1V1 activation, % of agonist value",TRPA1V1; [6],242.5%
same,activation at 1000 µM,human TRPA1; [5],210%
same,activation at 1000 µM,human TRPA1; [6],266%
CCCOC(=O)c1ccc(O)cc1 [Propylparaben],activation at 1000 µM,human TRPV1; [7],1.6%
same,"A1V1 activation, % of agonist value",TRPA1V1; [8],2.1%
same,activation at 1000 µM,human TRPA1; [9],93.2%
same,"TRPA1 activation selectivity, in words","human TRPA1; statement in description, see Table 1(i)",TRPA1 activator which does not modulate TRPV1 or TRPA1V1
CC(=O)/C=C/C=C(\C)CCC=C(C)C [Pseudoionone],"V1 activation, % of agonist value",human TRPV1; [4],20.76%
same,"A1V1 activation, % of agonist value",TRPA1V1; [5],127.2%
same,"A1 activation, % of agonist value",human TRPA1; [5],105.5%
CC/C=C\CCOC(=O)C(C)=O [Pyruvic caid cis-3-hexen-1-yl ester],"V1 activation, % of agonist value",human TRPV1; [4],21%
same,"A1V1 activation, % of agonist value",TRPA1V1; [5],40%
same,"A1 activation, % of agonist value",human TRPA1; [5],45%
CCCCCCCCCCCCCCCC(=O)OC/C=C(C)/C=C/C=C(C)/C=C/C1=C(C)CCCC1(C)C [Retinol palmitate],activation at 1000 µM,human TRPV1; [4],32.8%
same,"A1V1 activation, % of agonist value",TRPA1V1; [5],76.97%
same,activation at 1000 µM,human TRPA1; [5],76.4%
O=C1NS(=O)(=O)c2ccccc21 [Saccharin],activation at 1000 µM,human TRPV1,80.8%
same,"A1V1 activation, % of agonist value",TRPA1V1,93.25%
same,activation at 1000 µM,human TRPA1,92.6%
Cc1ccc(C(C)C)c(O)c1 [Thymol],activation at 1000 µM,human TRPV1; [1],106%
same,"A1V1 activation, % of agonist value",TRPA1V1; [2],105.7%
same,activation at 1000 µM,human TRPA1; [2],159%
